Patent US8227489B2, “N-(aminoheteroaryl)-1H-indole-2-carboxamide derivatives, preparation thereof and therapeutic use thereof” (Sanofi-Aventis, priority 2006, dated 2012)
Counter-ions that a name gives are not always drawn.

How the values were obtained:
TRPV1 receptor = molecular target: T1, TRPV1 receptor (Rattus norvegicus, UniProt O35433); assay: Inhibition of the current induced by capsaicin with regard to rat DRGs (whole cell patch clamp); type: cell-based; conditions: DRG neuron, capsaicin 1 microM response, rat DRG neurons, read-out: % Inhibition by the DRG patch technique; for inhibition at 0.001 µM: compound at 1 nM; for inhibition at 0.01 µM: compound at 10 nM
T1 construct: The neurons of the DRG naturally express the TRPV1 receptor; endogenous in cells; host or cells: primary culture of newborn rat dorsal root ganglion neurons
Protocol: Test of the Inhibition of the Current Induced by Capsaicin with Regard to Rat DRGs
• Primary culture of rat dorsal root ganglion (DRG) cells:
The neurons of the DRG naturally express the TRPV1 receptor.
Primary cultures of DRGs of newborn rats are prepared from one-day-old rats. Briefly, after dissection, the ganglions are trypsinized and the cells dissociated mechanically by gentle trituration. The cells are resuspended in an Eagle's basal culture medium comprising 10% of fetal calf serum, 25 mM KCl, 2 mM glutamine, 100 μg/ml of gentamicin and 50 ng/ml of NGF and then deposited on glass cover slips covered with laminin (0.25×10^6 cells per cover slip) which are subsequently placed in 12-well Corning dishes. The cells are incubated at 37° C. in a humidified atmosphere comprising 5% of CO2 and 95% of air. Cytosine β-D-arabinoside (1 μM) is added 48 h after culturing, in order to prevent the growth of non-neuronal cells. After culturing for 7-10 days, the cover slips are transferred into experimental chambers for the patch clamp studies.
The measurement chambers (volume 800 μl) comprising the cell preparation are placed on the stage of an inverted microscope (Olympus IMT2) equipped with Hoffman optics (Modulation Contrast, New York) and are observed at a magnification of 400×. The chambers are continuously perfused by gravity (2.5 ml/min) using a distributor of solutions which has 8 inlets, the single outlet of which, composed of a polyethylene tube (opening 500 μm), is placed at least 3 mm from the cell studied. The “whole cell” configuration of the patch clamp technique was used. Borosilicate glass pipettes (resistance 5-10 Mohms) are brought close to the cell using a 3D piezoelectric micromanipulator (Burleigh, PC1000). The overall currents (membrane potential set at −60 mV) are recorded with an Axopatch 1D amplifier (Axon Instruments, Foster City, Calif.) connected to a PC controlled by Pclamp8 software (Axon Instruments). The current plots are recorded on paper and simultaneously recorded digitally (sampling frequency 15 to 25 Hz) and acquired on the hard disk of the PC.
The application of a micromolar capsaicin solution produces an incoming cationic current with regard to the DRG cells (voltage set at […]). In order to minimize the desensitization of the receptors, a minimum interval of one minute between two applications of capsaicin is observed. After a control period (stabilization of the capsaicin alone response), the test compounds are applied alone at a given concentration (concentration of 10 nM or […]) for a period of time of 4 to 5 minutes, during which several capsaicin+compound tests are carried out (obtaining the maximum inhibition). The results are expressed as % of inhibition of the control capsaicin response.

TRPV1 receptors = molecular target: T2, TRPV1 receptors (Mus musculus, UniProt Q704Y3); assay: Mouse corneal irritation test (capsaicin-induced); type: in vivo; conditions: compound 500 μM, 2 μl local application on cornea 10 minutes before 160 μM capsaicin
T2 construct: from tissue; host or cells: cornea of the living mouse (in vivo)
Protocol: Mouse Corneal Irritation Test
The irritating nature of capsaicin is easily assessed on the cornea since this organ is one of the most innervated by C fibers. In this context, according to preliminary experiments, the application of a very small amount of capsaicin (2 μl at a concentration of 160 μM) at the surface of the cornea of an animal results in a number of kinds of stereotyped behavior related to irritation which are easy to record. These include: blinking of the eye, rubbing of the instilled eye by the ipsilateral front paw, rubbing of the face with the two front paws and scratching of the ipsilateral face by the hind paw. […] Its appearance is furthermore also normal. […] It may be concluded therefrom that the duration of action of capsaicin at these doses is less than 2 minutes.
Summary of the Methodology: […]
In practice, the test product, prepared at 25 mM in DMSO and diluted for its final use in physiological saline with 10% Tween 80 to the stronger concentration of 500 μM, is administered in local application at the surface of the cornea under a volume of 2 μl, 10 minutes before the application of the capsaicin. […] During observation for 2 minutes following the instillation, the number of rubbing actions on the instilled eye by the ipsilateral front paw is counted for each animal.
For a given group, the percentage of protection is calculated as follows: […]

T1 sequence (O35433 whole entry): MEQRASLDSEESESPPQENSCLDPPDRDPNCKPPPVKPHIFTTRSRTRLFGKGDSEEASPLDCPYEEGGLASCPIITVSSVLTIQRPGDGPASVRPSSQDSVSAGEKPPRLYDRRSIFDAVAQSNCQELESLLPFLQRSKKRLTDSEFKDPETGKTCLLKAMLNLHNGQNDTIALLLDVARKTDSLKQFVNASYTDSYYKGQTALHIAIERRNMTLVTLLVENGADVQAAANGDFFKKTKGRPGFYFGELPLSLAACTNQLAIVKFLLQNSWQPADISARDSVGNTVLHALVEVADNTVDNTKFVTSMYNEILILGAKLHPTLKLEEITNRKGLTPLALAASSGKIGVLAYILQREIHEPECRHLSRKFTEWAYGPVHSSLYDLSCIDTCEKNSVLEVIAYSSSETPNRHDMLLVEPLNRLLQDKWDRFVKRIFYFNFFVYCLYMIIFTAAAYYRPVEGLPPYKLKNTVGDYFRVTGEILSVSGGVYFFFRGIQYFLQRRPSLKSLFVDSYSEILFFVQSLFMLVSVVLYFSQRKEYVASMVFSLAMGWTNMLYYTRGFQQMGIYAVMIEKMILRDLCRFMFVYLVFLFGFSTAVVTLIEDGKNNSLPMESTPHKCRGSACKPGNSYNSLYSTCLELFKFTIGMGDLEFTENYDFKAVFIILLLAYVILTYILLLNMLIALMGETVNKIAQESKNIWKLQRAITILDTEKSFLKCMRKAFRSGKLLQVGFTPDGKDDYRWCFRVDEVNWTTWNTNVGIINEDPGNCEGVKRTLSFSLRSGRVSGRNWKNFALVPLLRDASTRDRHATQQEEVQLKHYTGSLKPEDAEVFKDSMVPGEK
T2 sequence (Q704Y3 whole entry): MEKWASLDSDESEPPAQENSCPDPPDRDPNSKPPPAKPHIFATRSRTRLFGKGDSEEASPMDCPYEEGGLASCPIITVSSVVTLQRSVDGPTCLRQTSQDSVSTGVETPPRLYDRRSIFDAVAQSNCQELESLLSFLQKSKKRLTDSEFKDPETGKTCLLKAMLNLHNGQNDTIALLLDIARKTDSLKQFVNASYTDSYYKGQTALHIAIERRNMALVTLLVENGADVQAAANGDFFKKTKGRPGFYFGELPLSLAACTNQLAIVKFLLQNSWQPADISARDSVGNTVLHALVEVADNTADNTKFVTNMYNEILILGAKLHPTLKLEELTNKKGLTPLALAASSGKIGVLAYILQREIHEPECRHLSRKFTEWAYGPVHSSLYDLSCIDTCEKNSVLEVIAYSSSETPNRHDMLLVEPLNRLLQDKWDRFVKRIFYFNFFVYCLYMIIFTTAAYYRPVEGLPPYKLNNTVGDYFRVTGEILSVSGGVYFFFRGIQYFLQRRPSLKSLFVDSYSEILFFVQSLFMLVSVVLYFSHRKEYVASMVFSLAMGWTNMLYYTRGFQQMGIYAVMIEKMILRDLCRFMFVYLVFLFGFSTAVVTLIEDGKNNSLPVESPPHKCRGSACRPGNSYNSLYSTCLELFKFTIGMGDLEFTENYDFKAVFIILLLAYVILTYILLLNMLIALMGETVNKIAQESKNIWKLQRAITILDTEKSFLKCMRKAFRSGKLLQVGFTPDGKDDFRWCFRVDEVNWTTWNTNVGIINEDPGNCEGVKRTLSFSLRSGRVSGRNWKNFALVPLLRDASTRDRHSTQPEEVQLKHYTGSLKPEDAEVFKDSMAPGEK

Compound	melting point	further results
CC(=O)Nc1ccc(NC(=O)c2cc3cc(F)ccc3n2Cc2cccc(F)c2)cn1	252 to 254 °C	–
Cc1cc(N(C)C)ncc1NC(=O)c1cc2cc(F)ccc2n1Cc1cccc(F)c1	183 to 185 °C	–
CNc1cc(C)c(NC(=O)c2cc3cc(F)ccc3n2Cc2cccc(F)c2)cn1	215 to 217 °C	–
Cc1cc(NC(=O)c2cc3cc(F)ccc3n2Cc2cccc(F)c2)cnc1N(C)C	145 to 146 °C	–
CNc1ccc(NC(=O)c2cc3cc(F)ccc3n2Cc2cccc(F)c2)c(C)n1	229 to 230 °C	–
CNc1ccc(NC(=O)c2cc3cc(F)ccc3n2Cc2cccc(F)c2)cn1 [Compound 1, N-[6-(methylamino)pyridin-3-yl]-5-fluoro-1-(3-fluorobenzyl)-1H-indole-2-carboxamide]	225 to 227 °C	inhibition at 0.001 µM (TRPV1 receptor): 53%; % P (percentage of protection) (TRPV1 receptors): 23%
CN(C)c1ccc(NC(=O)c2cc3cc(C(F)(F)F)ccc3n2Cc2cccc(F)c2)cn1 [Compound 12, N-[6-(dimethylamino)pyridin-3-yl]-5-trifluoromethyl-1-(3-fluorobenzyl)-1H-indole-2-carboxamide]	–	inhibition at 0.001 µM (TRPV1 receptor): 100%
Cc1cc(N(C)C)ncc1NC(=O)c1cc2cc(F)ccc2n1Cc1ccncc1 [Compound 17, N-[6-dimethylamino-4-methylpyridin-3-yl]-5-fluoro-1-(pyridin-4-ylmethyl)-1H-indole-2-carboxamide]	217 to 219 °C	inhibition at 0.01 µM (TRPV1 receptor): 60%
Cc1cc(NC(=O)c2cc3cc(F)ccc3n2Cc2ccncc2)cnc1N(C)C [Compound 19, N-[6-dimethylamino-5-methylpyridin-3-yl]-5-fluoro-1-(pyridin-4-ylmethyl)-1H-indole-2-carboxamide]	164 to 165 °C	inhibition at 0.01 µM (TRPV1 receptor): 33%

Second part, led by results:

melting point	Compound	further results
293 to 295 °C	CC(=O)Nc1ccc(NC(=O)c2cc3ccc(C(F)(F)F)cc3n2Cc2cccc(F)c2)cn1	–
218 to 220 °C	CNc1cc(C)c(NC(=O)c2cc3cc(F)ccc3n2Cc2ccncc2)cn1	–
232 to 234 °C	CN(C)c1ccc(NC(=O)c2cc3cc(F)ccc3n2Cc2cccc(F)c2)cn1.Cl	–
142 to 143 °C	CN(C)c1ncc(NC(=O)c2cc3cc(F)ccc3n2Cc2cccc(F)c2)cc1C(F)(F)F	–
138 to 139 °C	CN(C)C1=CNN(NC(=O)c2cc3cc(C(F)(F)F)ccc3n2Cc2cccc(F)c2)C=C1	–
255 to 267 °C	CN(C)C1=CNN(NC(=O)c2cc3ccc(C(F)(F)F)cc3n2Cc2cccc(F)c2)C=C1	–
268 to 272 °C	CN(C)C1=CNN(NC(=O)c2cc3cc(C(F)(F)F)ccc3n2Cc2ccncc2)C=C1.Cl	–
220 to 222 °C	CNc1ccc(NC(=O)c2cc3cc(F)ccc3n2Cc2ccncc2)cn1	–
158 to 159 °C	CN(C)c1ncc(NC(=O)c2cc3cc(F)ccc3n2Cc2cccc(F)c2)cc1F	–
239 to 241 °C	CN(C)C1=CNN(NC(=O)c2cc3cc(F)ccc3n2Cc2cccc(F)c2)C=C1 (as salt: hydrochloride)	–
